The source of these data is patent publication US7687497B2, “C10-substituted camptothecin analogs” (priority 2007, dated 2010).

The structures appear in SMILES notation. Where two headings read alike, the source gives them in different places.

The test system of series [1] is A2780/DX5 cells. Description: Sulforhodamine B (SRB) cytotoxicity assay in A2780/DX5 cells. The settings on record: for IC50 Ratio: A2780/DX5 versus A2780/WT; for IC50: Homo sapiens, A2780, read-out: A2780/DX5 (nM). The class given is cell-based. On the procedure: (§1) Each of the testing conditions used in this study in both A2780/WT (wild-type) and A2780/DX5 cells were repeated in five to fifteen experiments that were performed on separate days. Each experiment consisted of one microtiter plate with at least eight individual assays of a given drug treatment condition on the plate. The sulforhodamine B (SRB) assay was used to assess cytotoxicity and absorbance at 570 nm (A570) in order to calculate the percentage of cell control (or percent cell survival) for the various treatment conditions in the plate wells.
Roswell Park Memorial Institute (RPMI 1640) medium, fetal bovine serum (FBS), and L-glutamine were purchased from Gibco BRL. Drugs were dissolved in sterile dimethylsulfoxide (DMSO), from American Type Culture Collection (ATCC) for stock solutions (2.5 to 5.0 mM). Subsequent dilutions were made using cell culture medium (prior to adding the drug to cells). SRB was purchased from Sigma and dissolved in 1.0% acetic acid. Trichloroacetic acid was purchased from VWR International.
Cells were manipulated in a Class IIA/B3 Biological Safety Cabinet (Forma Scientific) and maintained at 37° C. in a humidified atmosphere containing 5% CO2 in a water-jacketed cell culture incubator (Forma Scientific). Cells were counted using a Coulter-Z1 counter (Beckman-Coulter). Following drug treatment, plates were washed using a Biomek 2000 station (Beckman) and, following exposure to SRB dye, plates were washed using an automated plate washer (Model EL404, Bio-Tek Instruments). Percentage of control was correlated to A570 values and determined using a Model EL800 plate reader (Bio-Tek Instruments).
Population doubling times for the two cell lines used in this study encompassed a total of five cell doublings corresponding to approximately 5 days for A2780/WT and A2780/DX5 cells. A2780/WT and A2780/DX5 cells were cultured in RPMI 1640 medium supplemented with 10% fetal bovine serum and 1 mM of L-glutamine. Both cell lines were maintained as monolayered cultures in T-25 or T-75 flasks and then seeded to microtiter plate wells for experiments described herein. Prior to SRB assays, cell viability was monitored by evaluation of microtiter plate wells. […]
The sulforhodamine B (SRB) cytotoxicity assay (see, Skehan P, et al., New colorimetric cytotoxicity assay for anticancer-drug screening. J. Natl. Cancer Inst. 82:1107-1112 (1990)) was used to determine the cytotoxic effects of BNP1350, SN-38, topotecan, 9-NH2-CPT, and 9-NO2-CPT on cell growth in vitro. […] Plates were agitated (gently) for 5 minutes and the absorbance values of the SRB dye-protein adduct at a 570 nm wavelength (A570) were determined using an automated microtiter plate reader equipped with an A570 filter (Model EL800, BioTek Instruments).
On the technique in general: Sulforhodamine B stains cellular protein and so reports cell mass.

The subject of series [2] is A2780/WT (wild-type) cells. Kind of series: Sulforhodamine B (SRB) cytotoxicity assay in A2780/WT cells. The settings on record: Homo sapiens, A2780, read-out: A2780/WT (nM). It counts as cell-based. On the procedure: as §1
Roswell Park Memorial Institute (RPMI 1640) medium, fetal bovine serum (FBS), and L-glutamine were purchased from Gibco BRL. […]
Cells were manipulated in a Class IIA/B3 Biological Safety Cabinet (Forma Scientific) and maintained at 37° C. in a humidified atmosphere containing 5% CO2 in a water-jacketed cell culture incubator (Forma Scientific). Cells were counted using a Coulter-Z1 counter (Beckman-Coulter). […] Percentage of control was correlated to A570 values and determined using a Model EL800 plate reader (Bio-Tek Instruments).
Population doubling times for the two cell lines used in this study encompassed a total of five cell doublings corresponding to approximately 5 days for A2780/WT and A2780/DX5 cells. […] Prior to SRB assays, cell viability was monitored by evaluation of microtiter plate wells. […]

The conditions of series [3]: clinical studies in Japan alone; cited from earlier work.
Series [4] concerns human cancer cell lines. Kind of series: In vitro studies on a panel of over 20 human cancer cell lines. It counts as cell-based.
Series [5] concerns advanced malignant melanoma. The settings on record: fifteen patients, 90-360 mg/m^2 repeated every 2 weeks; cited from earlier work.
In series [6] the test system is advanced gastrointestinal cancer. The settings on record: cited from earlier work.
The conditions of series [7]: cited from earlier work.
For series [8] the following is noted: cited from earlier work. The source holds these as a separate data set.
Setting [9] is: 5-day course (27 patients total), 4 wks.
[10] abbreviates: 5-day course (27 patients total), 8 wks.
Setting [11] is: 5-day course (27 patients total), 12 wks.
[12] abbreviates: single-dose method (34 patients total), 3 wks.
The mark [13] stands for this setting: single-dose method (34 patients total), 6 wks.
Setting [14] is: single-dose method (34 patients total), 9 wks.
Where [15] appears, read: single-dose method (34 patients total), 12 wks.
The mark [16] stands for this setting: 5-day course 15 mg/m^2 × 5, 9 patients treated.
Setting [17] is: 5-day course 17 mg/m^2 × 5, 5 patients treated.
The mark [18] stands for this setting: 5-day course 20 mg/m^2 × 5, 10 patients treated.
Setting [19] is: single dose 110 mg/m^2, 2 patients treated.
Setting [20] is: single dose 120 mg/m^2, 7 patients treated.
The mark [21] stands for this setting: single dose 180 mg/m^2, 9 patients treated.

`CCOC(=O)COc1ccc2nc3c(c(CC[Si](C)(C)C)c2c1)Cn1c-3cc2c(c1=O)COC(=O)[C@]2(O)CC` [Compound 9, 7-(2′-Trimethylsilanyl)ethyl-10-(ethoxycarbonylmethoxy) camptothecin]: in series [1], the “IC50 Ratio” value was 1.7. Besides, the IC50 in series [1] stood at 123 nM; in series [2] it was 73.9 nM.

As for `CC[C@@]1(O)C(=O)OCc2c1cc1n(c2=O)Cc2c-1nc1ccc(OC(=O)N3CCOCC3)cc1c2CC[Si](C)(C)C` [Compound 12, 7-(2′-Trimethylsilanyl)ethyl-10-(4-morpholinecarbonyloxy) camptothecin], in series [1], the “IC50 Ratio” value was found to be 2.1 and the IC50 came to 135 nM. In addition, in series [2], the IC50 turned out to be 65.6 nM.

In the case of `CCc1c2c(nc3ccc(OC(=O)N4CCC(N5CCCCC5)CC4)cc13)-c1cc3c(c(=O)n1C2)COC(=O)[C@]3(O)CC` [CPT-11, 7-ethyl-10-[4-(1-piperidino)-1-piperidino]carbonyloxy camptothecin], the “patient deaths directly attributable to drug toxicity” value in series [3] is “approximately 100 patient deaths”.

Take `CC[C@@]1(O)C(=O)OCc2c1cc1n(c2=O)Cc2c-1nc1ccccc1c2CC[Si](C)(C)C` [Karenitecin (BNP1350), (4S)-4-ethyl-4-hydroxy-11-[2-(trimethylsilyl)ethyl]-1H-pyrano[3′:4′:6,7]indolizino[1,2-b]quinoline-3,14(4H,12H)-dione]: the “antitumor potency compared with Topotecan or SN-38” value in series [4] is reported as “significantly more potent”.

On to `CC[C@@]1(O)C(=O)OCc2c1cc1n(c2=O)Cc2cc3ccccc3nc2-1` [CPT sodium], for which, in series [5], the “less pronounced transient tumor regression” value is “three”. The “Objective results: Improved” value in series [6] (setting [9]) is 1 patients; in series [6] (setting [12]) it was 4 patients; in series [6] (setting [13]), 2 patients; in series [6] (setting [14]), 2 patients. The “Objective results: Stable” value in series [6] (setting [9]) was 12 patients; in series [6] (setting [10]) it was 7 patients; in series [6] (setting [11]) it was 6 patients; in series [6] (setting [12]), 17 patients; in series [6] (setting [13]), 11 patients; in series [6] (setting [14]) it was 8 patients. For the same compound, the “Objective results: Stable” value in series [6] (setting [15]) is listed as 6 patients. In addition, the “Objective results: Worse” value in series [6] (setting [9]) is 14 patients; in series [6] (setting [10]) it was 20 patients; in series [6] (setting [11]), 21 patients; in series [6] (setting [12]), 13 patients; in series [6] (setting [13]), 21 patients; in series [6] (setting [14]), 24 patients. Besides, in series [6] (setting [15]), the “Objective results: Worse” value is recorded as 28 patients. Further, the “patients with evidence of partial objective improvement” value in series [6] (after 2 months (8 or 9 weeks), of 61 patients) is on record as “two”. Besides, the “patients who showed improvement” value in series [6] (at 3 months, of 61 patients) is given as “none”. For the same compound, the “bladder toxicity dose limiting” value in series [7] (doses of 20 to 30 mg/m^2) is listed as “three”. For the same compound, in series [7] (doses of 30 and 44 mg/m^2), the “bladder toxicity, additional patients” value was “two”. For the same compound, the “No. of patients with cystitis” value was 1 patients in series [8] (5-day course 11 mg/m^2 × 5, 2 patients treated); 4 patients in series [8] (setting [16]); 2 patients in series [8] (setting [17]); 6 patients in series [8] (setting [18]). Also, the “No. of patients with diarrhea” value in series [8] (setting [16]) is given as 1 patients; in series [8] (setting [17]), 4 patients; in series [8] (setting [18]), 4 patients; in series [8] (5-day course 22 mg/m^2 × 5, 1 patient treated), 1 patients. Besides, the “Cystitis, 5-Day Course (% of 27 Patients)” value in series [8] (5-day course) is on record as 48 (P < 0.05) %. Besides, the “Number of patients with cystitis” value in series [8] (single dose 100 mg/m^2, 6 patients treated) is 2 patients; in series [8] (setting [19]) it was 1 patients; in series [8] (setting [20]) it was 2 patients; in series [8] (setting [21]), 3 patients. Besides, the “Number of patients with diarrhea” value in series [8] (setting [19]) was 1 patients; in series [8] (setting [20]) it was 4 patients; in series [8] (setting [21]) it was 2 patients. The “Cystitis, Single Dose (% of 34 Patients)” value in series [8] (single dose method) is on record as 24%.
